Where two headings read alike, the source gives them in different places.
How the values were obtained:
Format in all cases: cell-based
[1] = test system: MDA-MB-231 (breast cancer); assay: Antiproliferative activity (CCK-8 cell viability), MDA-MB-231; conditions: Homo sapiens, 72 h, read-out: Antiproliferative activity in cancerous cells, MDA-MB-231 (inhibition of cell growth); for inhibition at 3.3 µM: Compound concentration: 3.3 μM; for inhibition at 10 µM: Compound concentration: 10 μM; for inhibition at 30 µM: Compound concentration: 30 μM
Experimental: (§1) The antiproliferative activity of a compound was determined in the following cell lines: MDA-MB-231 (breast cancer), HepG2 (liver cancer), SW480 (colon cancer), B16F10 (malignant melanoma), A431 (epidermoid carcinoma), A549 (lung adenocarcinoma), and HeLa (cervical cancer). MDA-MB-231, HepG2, SW480, B16F10, and A431 cells were cultured in Dulbecco's modified Eagle's medium (DMEM) containing 10% fetal bovine serum (FBS). HeLa cells were cultured in MEM/EBSS (MEM) containing 10% FBS. A549 cells were maintained in Kaighn's modification of Ham's F-12 medium containing 10% FBS. A Cell Counting Kit-8 (CCK-8) was used to measure the cell viability of different cells following treatment with the compound.
(§2) Briefly cells were seeded in a 96-well plate at a density of 2,000-5,000 cells/well. Following attachment, the cells were treated with the compound in media at a compound concentration of 3.3 μM, 10 μM, or 30 μM. After the cells were incubated at 37° C. for 72 h, a CCK-8 solution (10 μL) was added to each well. After incubation at 37° C. for 4 h, the absorbance value of each well was determined using a multi-well plate reader at 450 nm. The wells treated with DMSO were taken as a vehicle control. Data were also obtained similarly for all the replicates and the percentage of cell viability was determined with respect to the DMSO-treated cells. The results are summarized in Tables 2-4, wherein A represents no less than […] of cell growth; B represents no less than 30% but less than 50% inhibition of cell growth; and C represents less than 30% inhibition of cell growth.

HepG2 (liver cancer) = assay: Antiproliferative activity (CCK-8 cell viability), HepG2; conditions: Homo sapiens, 72 h, read-out: Antiproliferative activity in cancerous cells, HepG2 (inhibition of cell growth); for inhibition at 3.3 µM: Compound concentration: 3.3 μM; for inhibition at 10 µM: Compound concentration: 10 μM; for inhibition at 30 µM: Compound concentration: 30 μM
Experimental: as §1, §2

SW480 (colon cancer) = assay: Antiproliferative activity (CCK-8 cell viability), SW480; conditions: Homo sapiens, 72 h; for inhibition at 3.3 µM: Compound concentration: 3.3 μM; for inhibition at 10 µM: Compound concentration: 10 μM; for inhibition at 30 µM: Compound concentration: 30 μM
Experimental: as §1, §2

[2] = test system: B16F10 (malignant melanoma); assay: Antiproliferative activity (CCK-8 cell viability), B16F10; conditions: Mus musculus, 72 h, read-out: Antiproliferative activity in cancerous cells, B16F10 (inhibition of cell growth); for inhibition at 3.3 µM: B16-F10, Compound concentration: 3.3 μM; for inhibition at 10 µM: B16-F10, Compound concentration: 10 μM; for inhibition at 30 µM: B16-F10, Compound concentration: 30 μM
Experimental: as §1, §2

[3] = test system: A431 (epidermoid carcinoma); assay: Antiproliferative activity (CCK-8 cell viability), A431; conditions: Homo sapiens, 72 h, read-out: Antiproliferative activity in cancerous cells, A431 (inhibition of cell growth); for inhibition at 3.3 µM: A-431, Compound concentration: 3.3 μM; for inhibition at 10 µM: A-431, Compound concentration: 10 μM; for inhibition at 30 µM: A-431, Compound concentration: 30 μM
Experimental: as §1, §2

[4] = test system: A549 (lung adenocarcinoma); assay: Antiproliferative activity (CCK-8 cell viability), A549; conditions: Homo sapiens, 72 h; for inhibition at 3.3 µM: Compound concentration: 3.3 μM; for inhibition at 10 µM: Compound concentration: 10 μM; for inhibition at 30 µM: Compound concentration: 30 μM
Experimental: as §1, §2

HeLa (cervical cancer) = assay: Antiproliferative activity (CCK-8 cell viability), HeLa; conditions: Homo sapiens, 72 h, read-out: Antiproliferative activity in cancerous cells, HELA (inhibition of cell growth); for inhibition at 3.3 µM: Compound concentration: 3.3 μM; for inhibition at 10 µM: Compound concentration: 10 μM; for inhibition at 30 µM: Compound concentration: 30 μM
Experimental: as §1, §2

[5] = read-out: Antiproliferative activity in cancerous cells, SW480 (inhibition of cell growth)
[6] = read-out: Antiproliferative activity in cancerous cells, A549 (inhibition of cell growth)

SMILES | inhibition at 3.3 µM [1] [%] | inhibition at 10 µM [1] [%] | inhibition at 3.3 µM (HepG2 (liver cancer)) [%] | inhibition at 10 µM (HepG2 (liver cancer)) [%] | inhibition at 3.3 µM (SW480 (colon cancer); [5]) [%] | inhibition at 10 µM (SW480 (colon cancer); [5]) [%] | inhibition at 3.3 µM [2] [%] | inhibition at 10 µM [2] [%] | inhibition at 3.3 µM [3] [%] | inhibition at 10 µM [3] [%] | inhibition at 3.3 µM [4, 6] [%] | inhibition at 10 µM [4, 6] [%] | inhibition at 3.3 µM (HeLa (cervical cancer)) [%] | inhibition at 10 µM (HeLa (cervical cancer)) [%] | also measured
CC1=C(CC(=O)O)c2cc(F)ccc2/C1=C/c1ccc(Oc2ccc(Cl)c(Cl)c2)cc1 [E21, (E)-2-(1-(4-(3,4-Dichlorophenoxy)benzylidene)-5-fluoro-2-methyl-1H-inden-3-yl)acetic acid] | ≥ 50 | ≥ 50 | < 30 | ≥ 50 | 30 to 50 | ≥ 50 | < 30 | ≥ 50 | ≥ 50 | ≥ 50 | 30 to 50 | ≥ 50 | ≥ 50 | ≥ 50 | inhibition at 30 µM [1]: ≥ 50%; inhibition at 30 µM (HepG2 (liver cancer)): ≥ 50%; inhibition at 30 µM (SW480 (colon cancer); [5]): ≥ 50%; inhibition at 30 µM [2]: ≥ 50%; inhibition at 30 µM [3]: ≥ 50%; inhibition at 30 µM [4, 6]: ≥ 50%; inhibition at 30 µM (HeLa (cervical cancer)): ≥ 50%
COc1cc(Oc2ccc(/C=C3/C(C)=C(CC(=O)O)c4cc(F)ccc43)cc2)ccc1Cl [C71, (Z)-2-(1-(4-(4-Chloro-3-methoxyphenoxy)benzylidene)-5-fluoro-2-methyl-1H-inden-3-yl)acetic acid] | < 30 | 30 to 50 | ≥ 50 | ≥ 50 | < 30 | ≥ 50 | ≥ 50 | ≥ 50 | ≥ 50 | ≥ 50 | < 30 | 30 to 50 | 30 to 50 | ≥ 50 | –
CC1=C(CC(=O)O)c2cc(Br)ccc2/C1=C\c1ccc(COCc2ccc(Cl)cc2)cc1 [B120, (Z)-2-(5-Bromo-1-(4-(((4-chlorobenzyl)oxy)methyl)benzylidene)-2-methyl-1H-inden-3-yl)acetic acid] | < 30 | < 30 | 30 to 50 | ≥ 50 | < 30 | ≥ 50 | < 30 | < 30 | ≥ 50 | ≥ 50 | 30 to 50 | ≥ 50 | ≥ 50 | ≥ 50 | –
CC1=C(CC(=O)O)c2cc(F)ccc2/C1=C\c1ccc(OCCc2ccccc2)cc1 [B30, (Z)-2-(5-Fluoro-2-methyl-1-(4-phenethoxybenzylidene)-1H-inden-3-yl)acetic acid] | < 30 | ≥ 50 | < 30 | ≥ 50 | < 30 | ≥ 50 | < 30 | < 30 | ≥ 50 | ≥ 50 | 30 to 50 | ≥ 50 | < 30 | ≥ 50 | –
COc1ccc2c(c1)C(CC(=O)O)=C(C)/C2=C/c1ccc(Oc2ccc(Cl)cc2)cc1 [C72, (Z)-2-(1-(4-(4-Chlorophenoxy)benzylidene)-5-methoxy-2-methyl-1H-inden-3-yl)acetic acid] | 30 to 50 | 30 to 50 | < 30 | < 30 | < 30 | < 30 | ≥ 50 | ≥ 50 | 30 to 50 | 30 to 50 | < 30 | < 30 | ≥ 50 | ≥ 50 | inhibition at 30 µM (SW480 (colon cancer); read-out: Antiproliferative activity in cancerous cells, SW480): < 30%; inhibition at 30 µM ([4]; read-out: Antiproliferative activity in cancerous cells, A549): 30 to 50%
CCc1ccc2c(c1)/C(=C\c1ccc(COCc3ccc(F)cc3)cc1)C(C)=C2CC(=O)O [B121, (Z)-2-(6-Ethyl-1-(4-(((4-fluorobenzyl)oxy)methyl)benzylidene)-2-methyl-1H-inden-3-yl)acetic acid] | < 30 | < 30 | < 30 | ≥ 50 | < 30 | 30 to 50 | 30 to 50 | 30 to 50 | ≥ 50 | ≥ 50 | 30 to 50 | ≥ 50 | < 30 | ≥ 50 | –
COc1ccc(COCc2ccc(/C=C3/C(C)=C(CC(=O)O)c4cc(F)ccc43)cc2)cc1Cl [B108, (Z)-2-(1-(4-(((3-Chloro-4-methoxybenzyl)oxy)methyl)benzylidene)-5-fluoro-2-methyl-1H-inden-3-yl)acetic acid] | ≥ 50 | ≥ 50 | < 30 | ≥ 50 | < 30 | ≥ 50 | 30 to 50 | ≥ 50 | 30 to 50 | ≥ 50 | 30 to 50 | ≥ 50 | 30 to 50 | ≥ 50 | –
CC1=C(CC(=O)O)c2cc(F)ccc2/C1=C/c1ccc(CO)cc1 [E40, (E)-2-(5-Fluoro-1-(4-(hydroxymethyl)benzylidene)-2-methyl-1H-inden-3-yl)acetic acid] | < 30 | ≥ 50 | < 30 | < 30 | < 30 | ≥ 50 | < 30 | < 30 | < 30 | ≥ 50 | < 30 | ≥ 50 | < 30 | < 30 | inhibition at 30 µM [1]: ≥ 50%; inhibition at 30 µM (HepG2 (liver cancer)): < 30%; inhibition at 30 µM (SW480 (colon cancer); [5]): ≥ 50%; inhibition at 30 µM [2]: 30 to 50%; inhibition at 30 µM [3]: ≥ 50%; inhibition at 30 µM [4, 6]: ≥ 50%; inhibition at 30 µM (HeLa (cervical cancer)): ≥ 50%

Reference: patent US20260184663A1, “INDENE COMPOUNDS, PHARMACEUTICAL COMPOSITIONS THEREOF, AND THEIR THERAPEUTIC APPLICATIONS” (NucMito Pharmaceuticals co. Ltd., priority 2022, published 2026)
